Data from a melting point compilation (Tetko et al.; mined from patent text by program, amines drawn as free bases though some values may be those of a salt).

melting point	SMILES
229 to 230 °C	O=C1NC(=O)C(c2c[nH]c3ccccc23)N1 (centres undefined)
171 to 172 °C	CC(C)C[C@H](NC(=O)c1cccs1)C(=O)N[C@@H](C(C)C)[C@@H](O)c1c(-c2ccccc2)c1=O
153 to 155 °C	Fc1ccc2[nH]cc(C3=CCC4(CC3)OCCO4)c2c1
50 to 55 °C	S=C=NCCCN1CCC(c2ccccc2)CC1
85 to 86 °C	CC(=O)c1ccccc1CC1CNC(=O)O1 (centres undefined)
174 to 177 °C	O=S(=O)(c1ccc(Cl)cc1)N1CCC[C@@H](Nc2nccc(-c3c(-c4cccc(O)c4)nc4sccn34)n2)C1
> 230 °C	Cc1cc(Br)cc(C)c1NC(=O)Nc1ccc(-n2nc(C(F)(F)F)cc2C(F)(F)F)cc1
236 to 238 °C	CN1CC(CO)OC1=C(C#N)C=C1Nc2ccccc2C1=O (centres undefined)
218 to 219 °C	O=C1NCC(CCl)C1(c1ccccc1)c1ccccc1 (centres undefined)
131 to 134 °C	O=[N+]([O-])c1cc(C(F)(F)F)ccc1Sc1ccc(O)cc1
96 to 98 °C	COC(=O)CCCc1cc2nc(Cl)ccc2n1S(=O)(=O)c1ccc(F)c(F)c1
108 °C	CCOC(=O)NN(C)C(=O)Nc1ccc(OCc2ccc(Cl)cc2)cc1F
195 to 196 °C	CC(C)n1c(=O)n(C(N)=O)c2ccccc21
150 °C	CNc1cc(Oc2ccc(Cl)cc2Cn2cncn2)ccc1[N+](=O)[O-]
77 to 79 °C	C[Si](C)(C)OC1(C#N)CCOc2c(Cl)cc(Cl)cc21 (centres undefined)
147 to 149 °C	O=C(O)c1ccccc1OCCN1CCC(c2cn(CCCC3OCCO3)c3ccccc23)CC1
110 to 112 °C	CC1c2cc(Cl)ccc2-c2ccc(Cl)cc21
133 to 135 °C	CCCCCCCOc1ccc(-c2ncc(C#N)c(Cl)n2)cc1
118 to 120 °C	CC(C)C(C)C=CC(C)C1CCC2C3CC(=O)C4CC=CCC4(C)C3CCC12C (centres undefined)
140 to 142 °C	CCN(CC)CCNC(=O)c1cccc2nc3cc(I)ccc3nc12
96 °C	Cc1cccc(-c2c[nH]nc2-c2ccnc(-c3ccc(OCCN4CCCC4)cc3)c2)n1
306 to 308 °C	C=CCn1c(=O)c2cc(C(=O)O)cn2c2ccccc21
91 to 92 °C	Cc1cccc(C=Cc2ccccc2C#N)n1
145 to 147 °C	Cc1[nH]c(C(=O)N2CCN(c3ccccc3)CC2)c(C)c1-c1nc2ccc(C(=O)c3ccccc3)cc2[nH]1

melting point	SMILES
162 °C	N#Cc1ccc(N(c2ccccc2)n2ccnc2)cc1
158 to 160 °C	CCCCc1nc(C2CCCCC2)n(Cc2ccc(-c3ccccc3-c3ncn[nH]3)cc2)n1
185 to 188 °C	CCOC(=O)c1cnc2nn(C)cc2c1N1CCCCC1
172 to 173 °C	OCCOCCN1CCN(C2=Nc3ccccc3Sc3ccccc32)CC1
88 to 90 °C	OCCN(CCO)CCCNc1nc2cc(Cl)c(Cl)cc2nc1-c1ccccn1
139 to 141 °C	CC(C)c1cc(C(=O)Nc2ccc(CCC(=O)O)cc2)oc1C(C)C
179 to 180 °C	COc1cc2c(c(Cl)c1Cl)C(=O)C(C)(c1ccc([N+](=O)[O-])cc1)C2 (centres undefined)
56 to 59 °C	CCOP(=O)(OCC)C(Nc1cnccn1)P(=O)(OCC)OCC
181 °C	CNC(N)=Nc1nc(-c2cccc(CNC(C)=O)n2)cs1
63 to 65 °C	CCOC(=O)c1ccc(NCCCCc2cccs2)cc1
140 to 141 °C	COc1nc(C)nc(NC(=O)NS(=O)(=O)c2ccccc2OC(F)F)n1
167 to 168 °C	COC(=O)c1cc(C(=O)NCCCO)c2cc(Cc3ccc(F)cc3)cnc2c1O
234 to 236 °C	CCc1nc2c(N)nc3cccnc3c2n1CC1(O)CCOC1 (centres undefined)
110 to 111 °C	O=C(CCCCC(=O)Oc1cccc(O)c1O)Oc1cccc(O)c1O
56.2 to 59.2 °C	CC(C)(C)c1ccc(C=NOCCCOc2ccc(CC(=O)O)cc2)cc1
199 to 201 °C	C[Si](C)(C)C(CN)CC(=O)O (centres undefined)
229 to 231 °C	Oc1ccc2c(c1)CCCC(c1ccccc1)=C2c1ccc(OCCI)cc1
134 to 135 °C	CCOC(=O)CNC(=O)Oc1c(C)n(CCOC)ccc1=O
130 to 131 °C	Cc1nn(-c2cncc(F)c2)cc1-c1cccc(C(F)(F)F)n1
119 to 120 °C	COc1ccc2c(c1)OCC(c1ccc(C(F)(F)F)cc1)C2c1ccc(OCCN2CCCC2)cc1 (centres undefined)
205 to 206 °C	Cc1c(NC(=O)CC(C)(C)C)c(C)c2c(c1C(=O)c1ccccc1)OC[C@@H]2c1ccc(C(C)C)cc1
216 to 217 °C	O=C(CCl)Nc1ccc2c(c1NC(=O)C1CCCCC1)C(=O)c1ccccc1C2=O
> 300 °C	Cn1c(=O)c2nc(-c3ccc(/C=C/C(=O)O)cc3)[nH]c2n(Cc2cccc(C#N)c2)c1=O
242 to 244 °C	CC1(C)OC(=S)Nc2ccc(-c3ccc(C#N)s3)cc21

melting point	SMILES
103 to 104 °C	O=C(O)c1cc(Oc2ccc(C(F)(F)F)cc2Cl)ccc1Cl
219 to 220 °C	COCC(=O)Nc1nc(NC(=O)COC)c2[nH]cnc2n1
122 to 123 °C	CCOC(=O)c1cn(CC)c2nc(C)ccc2c1=O
232 to 236 °C	O=C(O)c1cc(-c2ccccc2)cc2c(-c3ccccc3)c(Br)oc12
78 to 80 °C	CC(=O)N1CCC(Oc2ccc(N(C)C)cc2)CC1
103 to 106 °C	COP(=O)(OC)[C@H](C)NC(=O)[C@H](C)N
145 °C	COC(=O)Nc1c(C#N)cnn1-c1c(Cl)cc(SC(F)(F)F)cc1Cl
191 to 194 °C	O=C1C2CC(c3ccc([N+](=O)[O-])cc3)(C2)C(=O)N1CC1CCCCC1
223 to 225 °C	COC(=O)c1cccc(Nc2nccc(-c3sc(N)nc3-c3ccccc3)n2)c1
146 to 148 °C	Cc1cccc(C2COc3cc(O)c(O)cc3C2)c1 (centres undefined)
117 to 118 °C	Cc1sc(N)c(C(=O)c2cccs2)c1C
156 to 187 °C	CCOC(=O)c1c(Nc2ccc(Cl)cc2C)n[nH]c1C
282 to 284 °C	Cc1cc(NS(=O)(=O)c2n[nH]c(NC=O)n2)ccc1Br
264 °C	Cc1cc(C#N)c(C)c(C(=O)Nc2ccc(Cl)cn2)n1
125 to 126 °C	COc1cccc(CNS(=O)(=O)Cc2ccc3[nH]cc(CC#N)c3c2)c1
160 to 163 °C	CCCCCC(CC(=O)Nc1cc(C(N)=O)ccc1C(C)(C)C)c1cc(C(N)=O)c(OC)cc1OC (centres undefined)
66 to 68 °C	CSc1ccc2nccn2n1
175 to 176 °C	COc1cc(OC)nc(Sc2[nH]nc(C)c2[N+](=O)[O-])n1
275 to 278 °C	COc1ccc(-c2nc(C)c(C(=O)Nc3nnn[nH]3)s2)cc1
167 to 169 °C	CC(=O)NCC[C@@H]1CCc2ccc3nn(C)c(Br)c3c21
159 to 160 °C	COC(=O)C(=Cc1c[nH]c2cc(Cl)ccc12)[N+](=O)[O-]
139 to 140 °C	Clc1ccc2c(C3CCN(CCCCC4Cc5ccccc5C4)CC3)c[nH]c2c1
187 °C	C#Cc1ccc(C(O)C2C(c3ccccc3)CC(=O)N2C)s1 (centres undefined)
100 to 102 °C	COc1ccc(C(=O)CCC(=O)N[C@@H](C)C(=O)O)cc1

melting point	SMILES
118 to 121 °C	CCOC(=O)CCc1c[nH]c2ccc([N+](=O)[O-])cc12
140 °C	COc1ccc(CCN2CCC(C3c4ccn(C)c4C=Cn4ncnc43)CC2)cc1 (centres undefined)
195 to 196 °C	CCOC(=O)CCCn1c2c(c(=O)n3nc(-c4ccccc4)cc13)CN(C1CCCCC1)C2=O
39 to 39.5 °C	Cc1ccc(S(=O)(=O)OCCc2ccccc2Br)cc1
219 to 223 °C	COc1cc(OCc2ccccn2)ccc1/C=C/c1cc(/C=C/c2c[nH]c3ncccc23)n[nH]1
108 °C	CCCc1cc(-c2ccccc2)ccc1C(=O)O
234 to 235 °C	CCC(CC)OC(=O)c1ccc(C(=O)NS(=O)(=O)c2ccc(C(=O)NCCc3ccccc3)cc2)cn1
215 to 217 °C	CCC(=O)N(C(=O)CC)c1nc2c(c(-c3ccccc3)cn2C)c(=O)n1C
130 °C	Cc1onc(-c2ccc(-c3cscn3)cc2)c1-c1ccc(S(C)(=O)=O)c(F)c1
93 to 95 °C	CC(=O)OCc1nc([N+](=O)[O-])cn1C
> 270 °C	COc1cc(O)ccc1C1=NC2=CCC(=O)NC2=N1
71 to 72 °C	NC(=O)c1ccccc1N1CCC1COc1cncc(F)c1 (centres undefined)
98 to 99 °C	COC1CCC(=O)N1S(=O)(=O)C=Cc1ccccc1 (centres undefined)
38.5 to 40 °C	CCCCCCCCCCCCCCC#Cc1cccc(C=O)n1
172 to 174 °C	O=C1C(=O)c2ccccc2C2=C1SCC1(CCN(c3cc(Cl)ncn3)CC1)O2
46 to 47 °C	O=C1OCCC1N[C@@H](Cc1ccccc1)C(=O)OCc1ccccc1 (some centres undefined)
86 °C	COC(=O)N1C2C3C=CC(C3OC(C)(C)C)C2N1C(=O)OC (centres undefined)
179 °C	Cc1cc(C)c2nc(-c3cnc(NCCCC4CCN(C)CC4)nc3C)[nH]c2c1
97 to 99 °C	CC(=O)Oc1ccc(CCC2CC(=O)OC(=O)C2)cc1
138 to 140 °C	Nc1ncc(Oc2ccc(Cl)cc2)c(N2CCOCC2)n1
122 to 124 °C	Cc1ncc([N+](=O)[O-])n1CCOC(=O)Cc1ccccc1Nc1c(Cl)cccc1Cl
123 to 124 °C	COc1ccc(CNC(=O)c2sc3ccccc3c2Br)cc1
65 to 70 °C	CCOC(=O)C(NC(=O)OCc1ccccc1)C(=O)O (centres undefined)
95 °C	COc1ccc(Cc2ccc3c(c2)OCO3)cc1C

SMILES	melting point
COCC(OC(C)=O)C1CC(=O)C2(C)CCC3C(CCC4=CC(=O)C=C(C)C43C)C12 (centres undefined)	184 to 185 °C
CN1CC(C(=O)COC(=O)c2ccccc2)CC2c3cccc4[nH]cc(c34)CC21 (centres undefined)	163 to 165 °C
O=C1CC2(CCNCC2)c2cc(Br)ccc2N1	218 °C
C#Cc1c(C#N)nn(-c2c(Cl)cc(C(F)(F)F)cc2Cl)c1N	215 to 216 °C
COc1cc(NC(=O)C2C(=O)N(C)C(=O)N(C)C2=O)ccc1O	252 to 253 °C
O=C(CF)c1ccc(F)cc1F	57 to 58 °C
N[C@@H]1CN2CCC1CC2	118 to 121 °C
C=CCN1C2CCC3C1CCC2N3C(c1ccc(C(=O)N2CCCCC2)cc1)c1cccc(O)c1 (centres undefined)	70 to 73 °C
